According to patent US20250325517A1, “ORAL DOSAGE FORMS OF ELRAGLUSIB” (Actuate Therapeutics, Inc., priority 2022, published 2025):
Where “and” joins values, the source holds several entries; their conditions need not be identical. Equal values may be shown once. Read-outs that look alike come from different tables or passages of the source. Marks after values point to notes of the source that are not given here.

Test: Phase 1 crossover PK study: oral solution fed/fasted vs IV infusion in healthy subjects
Format: in vivo, human
Details: for bioavailability: dose increasing from 180 mg to 320 mg
Protocol: This pharmacokinetic (PK) study in healthy subjects was conducted to characterize and compare the PK parameters in plasma following a single intravenous (IV) dose of Elraglusib Injection, Elraglusib Oral Solution after fasting, and Elraglusib Oral Solution after a high-fat meal (fed). The study was intended to assess the potential feasibility of an oral formulation of elraglusib based on systemic exposure being within the biologically active range. In clinical studies conducted to date, elraglusib Injection (10 mg/mL) is administered IV once or twice per week over multiple hours, which requires a significant amount of time and resources by both patients and site personnel. […] See Example 3 above.
The route of administration is by IV infusion after diluting elraglusib for injection with 0.9% Sodium Chloride Injection.
It is a clear, red solution, free of visible particulate matter and a low bioburden liquid dosage form that is self-preserving against microbial growth.
Subjects received a single 3.3 mg/kg dose of each of the following in a randomly assigned order separated by a 2-week period.
During the study, the high fat meal was administered over a period of under 30 minutes (in almost all cases, 28 minutes).
Elraglusib Injection (10 mg/mL) administered as an IV infusion over 60 minutes (concentration in mg/mL and infusion rate in mL/kg/hour could vary depending on the subject's body weight).
PK parameters including AUC, Cmax, Tmax, and t1/2 were analyzed by standard non-compartmental analysis (NCA) methods following each of the elraglusib doses. Log transformed Cmax and AUC parameters in subjects having adequate PK data following at least 1 of the oral and IV doses were used to assess the relative bioavailability of the oral dose (fed and/or fasted) compared to the IV dose.
All efforts were made to obtain the PK samples at the scheduled nominal times relative to dosing. PK samples were assayed using validated analytical methods.

[1] = oral 3.3 mg/kg fasted state, human plasma
[2] = oral 3.3 mg/kg fed state, human plasma
[3] = oral fasted vs IV infusion, 3.3 mg/kg
[4] = oral fed vs IV infusion, 3.3 mg/kg
[5] = oral fed vs oral fasted, 3.3 mg/kg

- Tmax (human, plasma, po, 3.3 mg/kg, oral 3.3 mg/kg fasted state, human plasma, read-out: Tmax Median): 2 h
- half-life (human, plasma, po, 3.3 mg/kg, oral 3.3 mg/kg fasted state, human plasma, read-out: t1/2 Arithmetic Mean (converted)): 16.4 h
- half-life (human, plasma, po, 3.3 mg/kg, oral 3.3 mg/kg fasted state, human plasma, read-out: t1/2 GMean (converted)): 15.6 h
- half-life (human, plasma, po, 3.3 mg/kg, oral 3.3 mg/kg fasted state, human plasma, read-out: t1/2 Median (converted)): 18.2 h
- AUC (human, plasma, po, 3.3 mg/kg, oral 3.3 mg/kg fed state, human plasma, read-out: AUC24 Arithmetic Mean): 3930 ng·h/mL
- AUC (human, plasma, po, 3.3 mg/kg, oral 3.3 mg/kg fed state, human plasma, read-out: AUC24 GMean): 3420 ng·h/mL
- AUC (human, plasma, po, 3.3 mg/kg, oral 3.3 mg/kg fed state, human plasma, read-out: AUC24 Median): 3990 ng·h/mL
- AUC (human, plasma, po, 3.3 mg/kg, oral 3.3 mg/kg fed state, human plasma, read-out: AUC48 Arithmetic Mean): 4550 ng·h/mL
- AUC (human, plasma, po, 3.3 mg/kg, oral 3.3 mg/kg fed state, human plasma, read-out: AUC48 GMean): 3980 ng·h/mL
- AUC (human, plasma, po, 3.3 mg/kg, oral 3.3 mg/kg fed state, human plasma, read-out: AUC48 Median): 4440 ng·h/mL
- AUC (human, plasma, po, 3.3 mg/kg, oral 3.3 mg/kg fed state, human plasma, read-out: AUC72 Arithmetic Mean): 4780 ng·h/mL
- AUC (human, plasma, po, 3.3 mg/kg, oral 3.3 mg/kg fed state, human plasma, read-out: AUC72 GMean): 4160 ng·h/mL
- AUC (human, plasma, po, 3.3 mg/kg, oral 3.3 mg/kg fed state, human plasma, read-out: AUC72 Median): 4600 ng·h/mL
- AUC (human, plasma, po, 3.3 mg/kg, oral 3.3 mg/kg fed state, human plasma, read-out: AUC96 Arithmetic Mean): 4890 ng·h/mL
- AUC (human, plasma, po, 3.3 mg/kg, oral 3.3 mg/kg fed state, human plasma, read-out: AUC96 GMean): 4250 ng·h/mL
- AUC (human, plasma, po, 3.3 mg/kg, oral 3.3 mg/kg fed state, human plasma, read-out: AUC96 Median): 4730 ng·h/mL
- AUC(0-t) (human, plasma, po, 3.3 mg/kg, oral 3.3 mg/kg fed state, human plasma, read-out: AUClast Arithmetic Mean): 4890 ng·h/mL
- AUC(0-t) (human, plasma, po, 3.3 mg/kg, oral 3.3 mg/kg fed state, human plasma, read-out: AUClast GMean): 4250 ng·h/mL
- AUC(0-t) (human, plasma, po, 3.3 mg/kg, oral 3.3 mg/kg fed state, human plasma, read-out: AUClast Median): 4730 ng·h/mL
- AUC(0-inf) (human, plasma, po, 3.3 mg/kg, oral 3.3 mg/kg fed state, human plasma, read-out: AUC∞ Arithmetic Mean): 5000 ng·h/mL
- AUC(0-inf) (human, plasma, po, 3.3 mg/kg, oral 3.3 mg/kg fed state, human plasma, read-out: AUC∞ GMean): 4330 ng·h/mL
- AUC(0-inf) (human, plasma, po, 3.3 mg/kg, oral 3.3 mg/kg fed state, human plasma, read-out: AUC∞ Median): 5020 ng·h/mL
- CL/F (human, plasma, po, 3.3 mg/kg, oral 3.3 mg/kg fed state, human plasma, read-out: CL/F Arithmetic Mean (converted)): 15.1 mL/min/kg
- CL/F (human, plasma, po, 3.3 mg/kg, oral 3.3 mg/kg fed state, human plasma, read-out: CL/F GMean (converted)): 12.7 mL/min/kg
- CL/F (human, plasma, po, 3.3 mg/kg, oral 3.3 mg/kg fed state, human plasma, read-out: CL/F Median (converted)): 11 mL/min/kg
- Cmax (human, plasma, po, 3.3 mg/kg, oral 3.3 mg/kg fed state, human plasma, read-out: Cmax Arithmetic Mean): 592 ng/mL
- Cmax (human, plasma, po, 3.3 mg/kg, oral 3.3 mg/kg fed state, human plasma, read-out: Cmax GMean): 474 ng/mL
- Cmax (human, plasma, po, 3.3 mg/kg, oral 3.3 mg/kg fed state, human plasma, read-out: Cmax Median): 507 ng/mL
- Tmax (human, plasma, po, 3.3 mg/kg, oral 3.3 mg/kg fed state, human plasma, read-out: Tmax Arithmetic Mean): 5.34 h
- Tmax (human, plasma, po, 3.3 mg/kg, oral 3.3 mg/kg fed state, human plasma, read-out: Tmax GMean): 5.02 h
- Tmax (human, plasma, po, 3.3 mg/kg, oral 3.3 mg/kg fed state, human plasma, read-out: Tmax Median): 5 h
- Vd/F (human, plasma, po, 3.3 mg/kg, oral 3.3 mg/kg fed state, human plasma, read-out: Vz/F GMean): 20.9 L/kg and 1530 L
- half-life (human, plasma, po, 3.3 mg/kg, oral 3.3 mg/kg fed state, human plasma, read-out: t1/2 Arithmetic Mean (converted)): 20.8 h
- half-life (human, plasma, po, 3.3 mg/kg, oral 3.3 mg/kg fed state, human plasma, read-out: t1/2 GMean (converted)): 19 h
- half-life (human, plasma, po, 3.3 mg/kg, oral 3.3 mg/kg fed state, human plasma, read-out: t1/2 Median (converted)): 21.2 h
- AUC(0-t) (human, plasma, po, 3.3 mg/kg, oral 3.3 mg/kg, Fasted, read-out: AUClast LS Means): 1460 ng·h/mL
- AUC(0-inf) (human, plasma, po, 3.3 mg/kg, oral 3.3 mg/kg, Fasted, read-out: AUC∞ LS Means): 1480 ng·h/mL
- Cmax (human, plasma, po, 3.3 mg/kg, oral 3.3 mg/kg, Fasted, read-out: Cmax LS Means): 133 ng/mL
- AUC(0-t) (human, plasma, po, 3.3 mg/kg, oral 3.3 mg/kg, Fed, read-out: AUClast LS Means): 4250 ng·h/mL
- AUC(0-inf) (human, plasma, po, 3.3 mg/kg, oral 3.3 mg/kg, Fed, read-out: AUC∞ LS Means): 4330 ng·h/mL
- Cmax (human, plasma, po, 3.3 mg/kg, oral 3.3 mg/kg, Fed, read-out: Cmax LS Means): 474 ng/mL
- bioavailability (human, plasma, po, human, fasting, read-out: oral bioavailability, FAUC∞ based regression): 14 to 24%
- bioavailability (human, plasma, po, human, fasting, read-out: oral bioavailability, FCmax based regression): 4 to 16%
- bioavailability (human, plasma, po, human, fed state, read-out: oral bioavailability, FAUC∞ based regression): 41 to 71%
- bioavailability (human, plasma, po, human, fed state, read-out: oral bioavailability, FCmax based regression): 16 to 52%
- % extrap Arithmetic Mean [1]: 1.518%
- % extrap GMean [1]: 1.219%
- % extrap Median [1]: 1.45%
- AUC∞/Dose Arithmetic Mean [1]: 7.224 ng·h/mL/mg
- AUC∞/Dose GMean [1]: 6.128 ng·h/mL/mg
- AUC∞/Dose Median [1]: 5.77 ng·h/mL/mg
- Clast Arithmetic Mean [1]: 1.158 ng/mL
- Clast GMean [1]: 0.8024 ng/mL
- Clast Median [1]: 0.719 ng/mL
- Cmax/Dose Arithmetic Mean [1]: 0.6705 ng/mL/mg
- Cmax/Dose GMean [1]: 0.5482 ng/mL/mg
- Cmax/Dose Median [1]: 0.622 ng/mL/mg
- R^2 Arithmetic Mean [1]: 0.9926 #
- R^2 GMean [1]: 0.9925 #
- R^2 Median [1]: 0.9962 #
- λZ Arithmetic Mean [1]: 0.04754 h⁻¹
- λZ GMean [1]: 0.04443 h⁻¹
- λZ Median [1]: 0.0381 h⁻¹
- % extrap Arithmetic Mean [2]: 1.865%
- % extrap GMean [2]: 1.301%
- % extrap Median [2]: 1.73%
- AUC∞/Dose Arithmetic Mean [2]: 20.18 ng·h/mL/mg
- AUC∞/Dose GMean [2]: 17.90 ng·h/mL/mg
- AUC∞/Dose Median [2]: 19.2 ng·h/mL/mg
- Clast Arithmetic Mean [2]: 3.055 ng/mL
- Clast GMean [2]: 2.053 ng/mL
- Clast Median [2]: 2.03 ng/mL
- Cmax/Dose Arithmetic Mean [2]: 2.340 ng/mL/mg
- Cmax/Dose GMean [2]: 1.958 ng/mL/mg
- Cmax/Dose Median [2]: 2.11 ng/mL/mg
- R^2 Arithmetic Mean [2]: 0.9928 #
- R^2 GMean [2]: 0.9928 #
- R^2 Median [2]: 0.9963 #
- λZ Arithmetic Mean [2]: 0.04026 h⁻¹
- λZ GMean [2]: 0.03648 h⁻¹
- λZ Median [2]: 0.0327 h⁻¹
- Relative bioavailability, Ratio (%) Fasted/IV, AUClast [3]: 17.11%
- Relative bioavailability, Ratio (%) Fasted/IV, AUC∞ [3]: 17.15%
- Relative bioavailability, Ratio (%) Fasted/IV, Cmax [3]: 7.62%
- Relative bioavailability, Ratio (%) Fed/IV, AUClast [4]: 50.75%
- Relative bioavailability, Ratio (%) Fed/IV, AUC∞ [4]: 51.06%
- Relative bioavailability, Ratio (%) Fed/IV, Cmax [4]: 27.24%
- Relative bioavailability, Ratio (%) Fed/Fasted, AUClast [5]: 291.00%
- Relative bioavailability, Ratio (%) Fed/Fasted, AUC∞ [5]: 292.05%
- Relative bioavailability, Ratio (%) Fed/Fasted, Cmax [5]: 357.10%
- concentration at 96 h (plasma, other: oral solution (fed and fasted) and IV infusion, 3.3 mg/kg, human, individual subjects, across treatments, read-out: quantifiable plasma concentrations at 96 hours post-dose): 0.273 to 7.18 ng/mL
Compound: Cn1cc(C2=C(c3coc4ccc(F)cc34)C(=O)NC2=O)c2cc3c(cc21)OCO3 [elraglusib, 3-(5-fluorobenzofuran-3-yl)-4-(5-methyl-5H-[1,3]dioxolo[4,5-f]indol-7-yl)-1H-pyrrole-2,5-dione]
